# Data published in paper PMC7461557, “Multicopy Suppressor Analysis of Strains Lacking Cytoplasmic Peptidyl-Prolyl cis/trans Isomerases Identifies Three New PPIase Activities in Escherichia coli That Includes the DksA Transcription Factor” (International Journal of Molecular Sciences, 2020).
# Experiments:
# MetL = biological target: T1, MetL (Escherichia coli, UniProt P00562); assay: chymotrypsin-coupled PPIase assay, absorbance […] nm; assay type: biochemical; conditions: inhibitor; substrate N-Suc-Ala-Ala-cis-Pro-Phe-p-nitroanilide; two-fold molar excess of FK506, 5 min preincubation; 35 mM HEPES pH 8.0, 10 °C
# T1 construct: ASKA clone in pCA24N, Ni-NTA purified from E. coli lacking six PPIs (SR18292)
# Cmk = biological target: T2, Cmk (Escherichia coli, UniProt P0A6I0); assay: chymotrypsin-coupled PPIase assay, absorbance […] nm; assay type: biochemical; conditions: inhibitor; substrate N-Suc-Ala-Ala-cis-Pro-Phe-p-nitroanilide; two-fold molar excess of FK506, 5 min preincubation; 35 mM HEPES pH 8.0, 10 °C
# T2 construct: ASKA clone in pCA24N, Ni-NTA purified from E. coli lacking six PPIs (SR18292)
# T2 sequence (P0A6I0 1-227): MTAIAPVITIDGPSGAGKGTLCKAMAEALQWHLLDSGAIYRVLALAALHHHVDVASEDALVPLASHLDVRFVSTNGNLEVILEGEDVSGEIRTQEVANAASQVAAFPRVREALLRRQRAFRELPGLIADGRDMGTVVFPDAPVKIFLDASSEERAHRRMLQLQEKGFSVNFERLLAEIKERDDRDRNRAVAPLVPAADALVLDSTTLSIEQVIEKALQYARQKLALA
# T1 sequence (P00562 whole entry): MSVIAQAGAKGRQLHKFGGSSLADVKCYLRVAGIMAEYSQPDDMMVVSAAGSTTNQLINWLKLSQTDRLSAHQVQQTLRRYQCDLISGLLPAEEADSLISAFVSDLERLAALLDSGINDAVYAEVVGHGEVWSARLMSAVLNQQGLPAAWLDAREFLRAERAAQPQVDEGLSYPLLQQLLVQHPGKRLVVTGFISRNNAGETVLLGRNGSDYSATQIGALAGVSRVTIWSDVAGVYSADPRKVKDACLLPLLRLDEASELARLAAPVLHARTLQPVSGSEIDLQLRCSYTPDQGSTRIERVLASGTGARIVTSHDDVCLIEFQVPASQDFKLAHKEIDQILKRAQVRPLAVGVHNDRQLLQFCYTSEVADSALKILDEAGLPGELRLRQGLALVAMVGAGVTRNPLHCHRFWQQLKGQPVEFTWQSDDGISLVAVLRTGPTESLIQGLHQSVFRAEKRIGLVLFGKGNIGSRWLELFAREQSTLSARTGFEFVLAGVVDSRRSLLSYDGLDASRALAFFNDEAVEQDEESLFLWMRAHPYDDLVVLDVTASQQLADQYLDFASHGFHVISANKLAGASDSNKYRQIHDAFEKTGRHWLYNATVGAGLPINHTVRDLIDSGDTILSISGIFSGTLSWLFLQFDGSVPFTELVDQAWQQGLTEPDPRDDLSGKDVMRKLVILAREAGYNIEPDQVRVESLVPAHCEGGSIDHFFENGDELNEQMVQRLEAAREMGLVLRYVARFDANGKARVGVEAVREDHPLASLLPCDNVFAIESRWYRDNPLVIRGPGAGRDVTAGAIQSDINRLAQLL
structure (smiles),measurement,setting,value
C=CC[C@@H]1/C=C(\C)C[C@H](C)C[C@H](OC)[C@H]2O[C@@](O)(C(=O)C(=O)N3CCCC[C@H]3C(=O)O[C@H](/C(C)=C/[C@@H]3CC[C@@H](O)[C@H](OC)C3)[C@H](C)[C@@H](O)CC1=O)[C@H](C)C[C@@H]2OC [FK506],"chymotrypsin-coupled PPIase assay, absorbance 390 nm",MetL,inhibition of the PPIase activity of MetL by the two-fold molar excess of FK506
same,"chymotrypsin-coupled PPIase assay, absorbance 390 nm",Cmk,inhibition of the PPIase activity of Cmk by the two-fold molar excess of FK506
